Laboratory results from the supplement of paper PMC10307832.

What was measured:
Experiment in all cases: relative viability (nuclei count vs DMSO), 5 days (fraction); higher = more cells survive
PC-3 [JPC-3] = test system: PC-3 [JPC-3]
In short: (§1)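 Values are medians from duplicate plates. Each reflects relative viability, defined as the nuclei count of treated wells over that of vehicle wells. Lung cancer cell lines in 1536-well plates were pin-tool dosed one day after seeding with one drug alone or with a fixed anchor-drug dose plus five library-drug doses (not always all listed) in √10 steps, then fixed, stained and imaged at 4× after 5 days.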

NCI-H1623 = test system: NCI-H1623
In short: as §1

A-427 = test system: A-427
In short: as §1

NCI-H1944 = test system: NCI-H1944
In short: as §1

NCI-H1563 = test system: NCI-H1563
In short: as §1

Row | Compound | relative viability (PC-3 [JPC-3]; first compound 0.08 µM) | relative viability (PC-3 [JPC-3]; first compound 0.253 µM) | relative viability (PC-3 [JPC-3]; first compound 0.8 µM) | relative viability (PC-3 [JPC-3]; first compound 2.53 µM) | relative viability (PC-3 [JPC-3]; first compound 8 µM) | relative viability (NCI-H1623; first compound 0.08 µM) | relative viability (NCI-H1623; first compound 0.253 µM) | relative viability (NCI-H1623; first compound 0.8 µM) | relative viability (NCI-H1623; first compound 2.53 µM) | relative viability (NCI-H1623; first compound 8 µM) | relative viability (A-427; first compound 0.08 µM) | relative viability (A-427; first compound 0.253 µM) | relative viability (A-427; first compound 0.8 µM) | relative viability (A-427; first compound 2.53 µM) | relative viability (A-427; first compound 8 µM) | relative viability (NCI-H1944; first compound 0.08 µM) | relative viability (NCI-H1944; first compound 0.253 µM) | relative viability (NCI-H1944; first compound 0.8 µM) | relative viability (NCI-H1944; first compound 8 µM) | relative viability (NCI-H1563; first compound 0.08 µM) | relative viability (NCI-H1563; first compound 0.253 µM) | relative viability (NCI-H1563; first compound 0.8 µM) | relative viability (NCI-H1563; first compound 2.53 µM) | relative viability (NCI-H1563; first compound 8 µM) | relative viability (NCI-H1944; first compound 2.53 µM)
1 | C=C1C(=O)O[C@@H](CCCCCCCC)[C@@H]1C(=O)O [C-75] + Cc1nc(Nc2ncc(C(=O)Nc3c(C)cccc3Cl)s2)cc(N2CCN(CCO)CC2)n1 [Dasatinib] (partner 0.075 µM) | 1.01 | 0.994 | 1.01 | 0.937 | 1 | 0.591 | 0.649 | 0.516 | 0.447 | 0.695 | 0.689 | 0.661 | 0.645 | 0.605 | 0.658 | 0.234 | 0.169 | 0.193 | 0.225 | 0.387 | 0.453 | 0.444 | 0.415 | 0.569 | –
2 | Oc1nc(-c2ccc(C(F)(F)F)cc2)nc2c1CSCC2 [XAV939] + Cc1nc(Nc2ncc(C(=O)Nc3c(C)cccc3Cl)s2)cc(N2CCN(CCO)CC2)n1 [Dasatinib] (partner 0.075 µM) | 1.09 | 0.899 | 0.938 | 1.05 | – | 0.474 | 0.516 | 0.521 | 0.555 | – | 0.838 | 0.677 | 0.667 | 0.557 | – | 0.239 | 0.248 | 0.226 | – | 0.422 | 0.442 | 0.475 | 0.415 | – | 0.218
